Data: the SangsterLogP compilation

O=C(O)CCC(=O)OC1N=C(c2ccccc2)c2cc(Cl)ccc2NC1=O (stereo not drawn)
logP: 1.5

CN1C(=O)C(O)N=C(c2ccccc2F)c2cc(Cl)ccc21 (stereo not drawn)
logP: 2.09

O=C1CN=C(c2ccccc2)c2cc(Cl)ccc2N1CC(F)(F)F
logP: 3.97

CC(=O)OC1N=C(c2ccccc2)c2cc(Cl)ccc2N(CCO)C1=O (stereo not drawn)
logP: 2.45

CCCC(CCC)C(=O)OC1N=C(c2ccccc2)c2cc(Cl)ccc2NC1=O (stereo not drawn)
logP: 4.94

O=C1C(O)N=C(c2ccccc2)c2cc(Cl)ccc2N1CCCO (stereo not drawn)
logP: 1.68

O=C1Nc2ccc(Cl)cc2C(c2ccccc2F)=NC1O (stereo not drawn)
logP: 1.81

O=C1C(O)N=C(c2ccccc2)c2cc(Cl)ccc2N1CCO (stereo not drawn)
logP: 1.53

CC(=O)OCCN1C(=O)C(OC(C)=O)N=C(c2ccccc2)c2cc(Cl)ccc21 (stereo not drawn)
logP: 2.74

CCN(CC)CCN1C(=O)C(O)N=C(c2ccccc2F)c2cc(Cl)ccc21 (stereo not drawn)
logP: 1.89

O=C(O)CCC(=O)OCCN1C(=O)C[N+]([O-])=C(c2ccccc2)c2cc(Cl)ccc21
logP: 0.36

CCOC1N=C(c2ccccc2)c2cc(Cl)ccc2N(CCO)C1=O (stereo not drawn)
logP: 2.44

CC(=O)OCCCN1C(=O)C(OC(C)=O)N=C(c2ccccc2)c2cc(Cl)ccc21 (stereo not drawn)
logP: 3.08

O=C1C(O)N=C(c2ccccc2Cl)c2cc(Cl)ccc2N1CCO (stereo not drawn)
logP: 2.16

CCOC1N=C(c2ccccc2)c2cc(Cl)ccc2N(CCCl)C1=O (stereo not drawn)
logP: 3.53

O=C1C[N+]([O-])=C(c2ccccc2)c2cc(Cl)ccc2N1CCO
logP: 0.82

COc1cc(C(=O)OC2N=C(c3ccccc3)c3cc(Cl)ccc3NC2=O)cc(OC)c1OC (stereo not drawn)
logP: 3.75

CCN(CC)CCN1C(=O)C(O)N=C(c2ccccc2Cl)c2cc(Cl)ccc21 (stereo not drawn)
logP: 1.76

CCN(CC)CCN1C(=O)C(O)N=C(c2ccccc2)c2cc(Cl)ccc21 (stereo not drawn)
logP: 1.7

O=C1C(O)N=C(c2ccccc2F)c2cc(Cl)ccc2N1CCO (stereo not drawn)
logP: 1.52

CNC(=O)N1C(=O)CN=C(c2ccccc2)c2cc([N+](=O)[O-])ccc21
logP: 1.76

O=C1C(O)N=C(c2ccccc2)c2cc([N+](=O)[O-])ccc2N1CCO (stereo not drawn)
logP: 0.55

CN1C(=O)C(O)N=C(c2ccccc2Cl)c2cc(Cl)ccc21 (stereo not drawn)
logP: 2.5
